Reference: patent US9889146B2, “Benzoxaborole compounds and uses thereof” (priority 2012, dated 2018)
In brackets after ≈: the same amount, converted by molar mass. Where two headings read alike, the source gives them in different places.

Legend:
Assay type in all cases: cell-based
[1] = test system: E. coli ATCC 25922 wild type and mutants; test: MIC in M9 minimal media; settings: Escherichia coli, read-out: MICs in M9 minimal media
Protocol: (§1) Spontaneous Resistance Frequency was determined in vitro for GSK2251052 and the resistance mutants in E. coli ATCC 25922, K. pneumoniae ATCC 13883, and P. aeruginosa ATCC 27853 strains were characterized. GSK2251052 was prepared as described in U.S. Pat. No. 7,816,344 (the entire contents of which are hereby incorporated by reference herein). LB broth, Mueller Hinton II broth (adjusted), and Difco noble agar were obtained from Becton Dickinson (Cockeysville, Md., USA). M9 minimal broth containing 1×M9 salt, 0.5 μg/ML thiamine, 1 mM MgSO4, 0.1 mM CaCl2, 2% glucose, was obtained from Teknova (Hollister, Calif., USA). Antibacterial agents ciprofloxacin, ceftazidime, chloramphenicol, gentamycin, kanamycin, polymixin B, tobramycin and trimethoprim, and amino acids were obtained from Sigma Chemicals (St. Louis, Mo., USA). Strains were obtained from ATCC (Manassas, Va., USA).
(§2) Susceptibility tests were performed following the recommendations for aerobic bacteria (M7-A7) from the Clinical and Laboratories Standards Institute (CLSI).
(§3) The aminoacyl-tRNA synthetase enzyme, LeuRS, ensures the correct amino acid, leucine, is attached to tRNA^Leu. The LeuRS synthetic active site is capable of aminoacylating tRNA^Leu with amino acids structural similar to leucine (norvaline, norleucine, isoleucine and methionine). These mischarged tRNA^Leu are hydrolyzed by the editing domain, thus preventing the deleterious incorporation of incorrect amino acids into the growing polypeptide. The laboratory generated mutants were further tested for their ability to grow in defined media with exogenously added amino acids. Norvaline and norleucine, structurally similar to leucine, were tested in M9 minimal media. […]

[2] = test system: K. pneumoniae ATCC 13883 wild type and mutants; test: MIC in M9 minimal media; settings: Klebsiella pneumoniae, read-out: MICs in M9 minimal media
Protocol: as §1, §2, §3

[3] = test system: P. aeruginosa ATCC 27853 wild type and mutants; test: MIC in M9 minimal media; settings: Pseudomonas aeruginosa, read-out: MICs in M9 minimal media
Protocol: as §1, §2, §3

[4] = test system: P. aeruginosa ATCC 27853, E. coli ATCC 25922 and K. pneumoniae ATCC 13883; test: MIC in M9 minimal media, three strains summarised; settings: all GSK2251052 resistant mutants
Protocol: as §1, §2
The aminoacyl-tRNA synthetase enzyme, LeuRS, ensures the correct amino acid, leucine, is attached to tRNA^Leu. The LeuRS synthetic active site is capable of aminoacylating tRNA^Leu with amino acids structural similar to leucine (norvaline, norleucine, isoleucine and methionine). […]

[5] = test system: E. coli isolates from subject E. coli 1; test: MIC in M9 minimal media of clinical isolates, subject E. coli 1; settings: Escherichia coli
Protocol: The E. coli and P. mirabilis strains were cultured on Trypticase Soy Agar/5% blood plates (Becton Dickinson BBL), in cation adjusted Mueller-Hinton II Broth, or in M9 minimal salts (Becton Dickinson) broth containing 0.4% glucose and 200 uM MgSO4. L-Norvaline (Sigma-Aldrich) was prepared at a concentration of 6.4 mg/ml in […], in a final volume of approx 0.5 ml, and stored at −20° C. until required.
Minimum inhibitory concentrations (MICs) were determined using the CLSI (Clinical and Laboratory Standards Institute, formerly NCCLS) recommended broth microdilution methodology [NCCLS, 2003] using defined media.
Throughout this study E. coli and P. mirabilis strains were cultured on Trypticase Soy Agar/5% blood plates, on M9 salts/1.2% Bacto Agar plates, in Cation Adjusted Mueller-Hinton II Broth (CAMHB), or in M9 Minimal Salt Broth containing 0.4% glucose and 200 μM MgSO4. GSK2251052 and norvaline were prepared at a concentration of 6.4 mg/mL (free base) in 100% DMSO and 100% water respectively, aliquoted in 0.5 mL individual stocks, and stored at −20° C. until required.
Minimum inhibitory concentrations (MICs) were determined for each organism using the CLSI (Clinical and Laboratory Standards Institute) recommended broth microdilution methodology [CLSI, 2009].
Strains tested are detailed in Table 15. MICs for norvaline and GSK2251052 could only be determined for E. coli isolates from subject E. coli 1 (Table 16) as M9 Minimal Media could not sustain growth of E. coli isolates from subject E. coli 2 (isolates 2a-2o) or P. mirabilis isolates (isolates 3a-3c) from subject E. coli 3. […] This phenotype is consistent with a mutation in the editing site of LeuRS, which could also be responsible for the concomitant decrease in susceptibility to GSK2251052 observed in isolates from Days 2, 3 and 4 (Table 16).

[6] = test system: Escherichia coli 1161435 parent and mutant strains B4, B26 and B35; test: Sensitivity to leucine analogs in MH and M9 media
E. coli = test: Inhibition of bacterial growth on agar plates; settings: preliminary studies

CCC[C@H](N)C(=O)O [Norvaline, L-Norvaline] showed an MIC ([1]; ATCC25922, E 101(leuRS Y246H)) of 4 µg/mL (≈ 34.1 µM), an MIC ([1]; ATCC25922, E 102(leuRS D345G)) of 0.5 µg/mL (≈ 4.27 µM) and an MIC ([1]; ATCC25922, E 107(leuRS G229S)) of 1 µg/mL (≈ 8.54 µM). For the same compound, the MIC ([1]; ATCC25922, E. coli ATCC25922) was 32 µg/mL (≈ 273 µM), the MIC ([2]; ATCC13883, K 104(leuRS D345Y)) was 1 µg/mL (≈ 8.54 µM) and the MIC ([2]; ATCC13883, K 105(leuRS G229R)) was 4 µg/mL (≈ 34.1 µM). For the same compound, the MIC ([2]; ATCC13883, K 107(leuRS S227F)) was 4 µg/mL (≈ 34.1 µM), the MIC ([2]; ATCC13883, K 108(leuRS T248P)) was 2 µg/mL (≈ 17.1 µM) and the MIC ([2]; ATCC13883, K 110(leuRS V338L)) was 4 µg/mL (≈ 34.1 µM). For the same compound, the MIC ([2]; ATCC13883, Klebsiella pneumoniae ATCC13883) was 16 µg/mL (≈ 137 µM), the MIC ([3]; ATCC27853, P 101 (leuRS T256P)) was 4 µg/mL (≈ 34.1 µM) and the MIC ([3]; ATCC27853, P 106 (leuRS V342M)) was 0.25 µg/mL (≈ 2.13 µM). The MIC ([3]; ATCC27853, P 108 (leuRS T252P)) was 0.25 µg/mL (≈ 2.13 µM), the MIC ([3]; ATCC27853, P. aeruginosa ATCC27853) was greater than 64 µg/mL and the “sensitivity of the resistant mutants” value [4] was “High sensitivity”. For the same compound, the MIC ([5]; 24 h, Isolate 1a, Blood, Day 1, read-out: MIC in M9 Minimal Media) was 4 µg/mL (≈ 34.1 µM), the MIC ([5]; 24 h, Isolate 1b, Urine, Day 1, read-out: MIC in M9 Minimal Media) was 2 µg/mL (≈ 17.1 µM) and the MIC ([5]; 24 h, subject E. Coli 1, day 1, first line, no LeuRS change, read-out: Norvaline MIC in M9) was 4 µg/mL (≈ 34.1 µM). It also gave an MIC ([5]; 24 h, subject E. Coli 1, day 1, second line, no LeuRS change, read-out: Norvaline MIC in M9) of 2 µg/mL (≈ 17.1 µM), an MIC ([5]; 48 h, Isolate 1c, Blood, Day 2, read-out: MIC in M9 Minimal Media) of 0.5 µg/mL (≈ 4.27 µM) and an MIC ([5]; 72 h, read-out: Norvaline MIC in M9) of 0.5 µg/mL (≈ 4.27 µM). For the same compound, the MIC ([5]; 96 h, Isolate 1e, Blood, Day 4, read-out: MIC in M9 Minimal Media) was 0.5 µg/mL (≈ 4.27 µM), the MIC ([5]; Isolate 1d, Blood, Day 3, read-out: MIC in M9 Minimal Media) was 0.5 µg/mL (≈ 4.27 µM) and the MIC (sensitivity to leucine analogs) ([6]; 1161435 Parent, M9) was greater than 128 µg/mL. It also gave an MIC (sensitivity to leucine analogs) ([6]; 1161435 Parent, MH) greater than 128 µg/mL, an MIC (sensitivity to leucine analogs) ([6]; B4 (P339L), M9) of 2 µg/mL and an MIC (sensitivity to leucine analogs) ([6]; B4 (P339L), MH) greater than 128 µg/mL. For the same compound, the MIC (sensitivity to leucine analogs) ([6]; B26 (R334H), M9) was 16 µg/mL, the MIC (sensitivity to leucine analogs) ([6]; B26 (R334H), MH) was greater than 128 µg/mL and the MIC (sensitivity to leucine analogs) ([6]; B35 (D251N), M9) was 64 µg/mL. For the same compound, the MIC (sensitivity to leucine analogs) ([6]; B35 (D251N), MH) was greater than 128 µg/mL, the “sensitivity of the mutants” value ([6]; mutant strains in M9 minimal media) was “most sensitivity” and the “concentration at which a bacterial lawn could still be observed” value (E. coli) was greater than 64 µg/mL.
